IC50 data for 20 compounds are collected here from patent US12428430B2 (BRISTOL-MYERS SQUIBB COMPANY, priority 2018, dated 2025).

The assay concerns the target hLPA1 (Homo sapiens, UniProt Q92633). In words: LPA1 functional antagonist assay (LPA-induced calcium flux in CHO cells overexpressing human LPA1). It counts as cell-based. The arrangement: expressed in transfected cells; host or cells: Chinese hamster ovary (CHO) cells. Particulars: antagonist mode, inhibition of calcium flux induced by 10 nM LPA, read-out: hLPA1 IC50. As for the experimental part:
The effectiveness of compounds of the present invention as LPA1 inhibitors can be determined in an LPA1 functional antagonist assay as follows:
Chinese hamster ovary cells overexpressing human LPA1 were plated overnight (15,000 cells/well) in poly-D-lysine coated 384-well microplates (Greiner bio-one, Cat #781946) in DMEM/F12 medium (Gibco, Cat #11039). Following overnight culture, cells were loaded with calcium indicator dye (AAT Bioquest Inc, Cat #34601) for 30 minutes at 37° C. The cells were then equilibrated to room temperature for 30 minutes before the assay. Test compounds solubilized in DMSO were transferred to 384 well non-binding surface plates (Corning, Cat #3575) using the Labcyte Echo acoustic dispense and diluted with assay buffer [1×HBSS with calcium/magnesium (Gibco Cat #14025-092), 20 mM HEPES (Gibco Cat #15630-080) and 0.1% fatty acid free BSA (Sigma Cat #A9205)] to a final concentration of 0.5% DMSO. Diluted compounds were added to the cells by FDSS6000 (Hamamatsu) at final concentrations ranging from 0.08 nM to 5 μM. and were then incubated for 20 min at room temperature at which time LPA (Avanti Polar Lipids Cat #857130C) was added at final concentrations of 10 nM to stimulate the cells. The compound IC50 value was defined as the concentration of test compound which inhibited 50% of the calcium flux induced by LPA alone. IC50 values were determined by fitting data to a 4-parameter logistic equation (GraphPad Prism, San Diego Calif.).

Sequence of hLPA1 (Q92633 whole entry): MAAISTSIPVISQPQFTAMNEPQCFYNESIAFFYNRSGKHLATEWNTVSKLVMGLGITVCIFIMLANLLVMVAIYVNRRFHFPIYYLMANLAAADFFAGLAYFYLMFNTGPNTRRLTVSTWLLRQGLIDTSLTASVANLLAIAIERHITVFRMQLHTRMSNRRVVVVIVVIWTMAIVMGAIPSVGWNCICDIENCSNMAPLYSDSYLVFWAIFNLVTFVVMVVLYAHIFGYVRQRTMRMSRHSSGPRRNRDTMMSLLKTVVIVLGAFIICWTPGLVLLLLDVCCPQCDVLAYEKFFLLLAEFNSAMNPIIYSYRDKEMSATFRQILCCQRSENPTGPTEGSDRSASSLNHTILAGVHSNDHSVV

For `Cc1ccccc1[C@@H](C)OC(=O)Nc1c(C)noc1-c1ccc(C23CCC(CC(=O)O)(CC2)OC3)c(F)c1` [Example 17, 2-(4-(2-fluoro-4-(3-methyl-4-((((R)-1-(o-tolyl)ethoxy)carbonyl)amino)isoxazol-5-yl)phenyl)-2-oxabicyclo[2.2.2]octan-1-yl)acetic acid], the IC50 amounted to 119 nM. In the case of `Cc1noc(-c2ccc(C34CCC(CC(=O)O)(CC3)OC4)c(F)c2)c1NC(=O)O[C@H](C)c1ccccc1Cl` [Example 18, 2-(4-(4-(4-((((R)-1-(2-chlorophenyl)ethoxy)carbonyl)amino)-3-methyl-isoxazol-5-yl)-2-fluorophenyl)-2-oxabicyclo[2.2.2]octan-1-yl)acetic acid] it was 56 nM; in that of `Cc1noc(-c2ccc(C34CCC(CC(=O)O)(CC3)OC4)cc2F)c1NC(=O)O[C@H](C)C1CC1` [Example 20, 2-(4-(4-(4-((((R)-1-cyclopropylethoxy)carbonyl)amino)-3-methylisoxazol-5-yl)-3-fluorophenyl)-2-oxabicyclo[2.2.2]octan-1-yl)acetic acid], 863 nM; in that of `Cc1noc(-c2ccc(C34CCC(CC(=O)O)(CC3)OC4)cc2F)c1NC(=O)O[C@H](C)c1ccccc1` [Example 21, 2-(4-(3-fluoro-4-(3-methyl-4-((((R)-1-phenylethoxy)carbonyl)amino)isoxazol-5-yl)phenyl)-2-oxabicyclo[2.2.2]octan-1-yl)acetic acid], 95 nM.

Take `Cc1noc(-c2ccc(C34CCC(CC(=O)O)(CC3)OC4)cc2F)c1NC(=O)O[C@H](C)c1ccccc1Cl` [Example 22, 2-(4-(4-(4-((((R)-1-(2-chlorophenyl)ethoxy)carbonyl)amino)-3-methylisoxazol-5-yl)-3-fluorophenyl)-2-oxabicyclo[2.2.2]octan-1-yl)acetic acid]: the IC50 was found to be 64 nM. For `Cc1ccccc1[C@@H](C)OC(=O)Nc1c(C)noc1-c1ccc(C23CCC(CC(=O)O)(CC2)OC3)cc1F` [Example 23, 2-(4-(3-fluoro-4-(3-methyl-4-((((R)-1-(o-tolyl)ethoxy)carbonyl)amino)isoxazol-5-yl)phenyl)-2-oxabicyclo[2.2.2]octan-1-yl)acetic acid] the value was 98 nM.

`Cc1cc(C23CCC(CC(=O)O)(CC2)OC3)ccc1-c1onc(C)c1NC(=O)O[C@H](C)c1ccccc1Cl` [Example 27, 2-(4-(4-(4-((((R)-1-(2-chlorophenyl)ethoxy)carbonyl)amino)-3-methyl-isoxazol-5-yl)-3-methylphenyl)-2-oxabicyclo[2.2.2]octan-1-yl)acetic acid]: the IC50 worked out at 185 nM. For `C[C@@H](OC(=O)Nc1c(-c2ccc(C34CCC(CC(=O)O)(CC3)OC4)cc2)cnn1C)c1ccccc1Cl` [Example 28, 2-(4-(4-(5-((((R)-1-(2-chlorophenyl)ethoxy)carbonyl)amino)-1-methyl-1H-pyrazol-4-yl)phenyl)-2-oxa-bicyclo[2.2.2]octan-1-yl)acetic acid] the value was 164 nM. In the case of `C[C@@H](OC(=O)Nc1c(-c2ccc(C34CCC(CC(=O)O)(CC3)OC4)c(F)c2)cnn1C)c1ccccc1` [Example 30, 2-(4-(2-fluoro-4-(1-methyl-5-((((R)-1-phenylethoxy)carbonyl)amino)-1H-pyrazol-4-yl)phenyl)-2-oxabicyclo[2.2.2]octan-1-yl)acetic acid] it was 365 nM; in that of `C[C@@H](OC(=O)Nc1c(-c2ccc(C34CCC(CC(=O)O)(CC3)OC4)c(F)c2)cnn1C)c1ccccc1Cl` [Example 31, 2-(4-(4-(5-((((R)-1-(2-chlorophenyl)ethoxy)carbonyl)amino)-1-methyl-1H-pyrazol-4-yl)-2-fluorophenyl)-2-oxabicyclo[2.2.2]octan-1-yl)acetic acid], 112 nM; in that of `C[C@@H](OC(=O)Nc1c(-c2ccc(C34CCC(CC(=O)O)(CC3)OC4)cc2F)cnn1C)c1ccccc1Cl` [Example 32, 2-(4-(4-(5-((((R)-1-(2-chlorophenyl)ethoxy)carbonyl)amino)-1-methyl-1H-pyrazol-4-yl)-3-fluorophenyl)-2-oxabicyclo[2.2.2]octan-1-yl)acetic acid], 115 nM. For `Cc1cc(C23CCC(CC(=O)O)(CC2)OC3)ccc1-c1cnn(C)c1NC(=O)O[C@H](C)c1ccccc1Cl` [Example 33, 2-(4-(4-(5-((((R)-1-(2-chlorophenyl)ethoxy)carbonyl)amino)-1-methyl-1H-pyrazol-4-yl)-3-methylphenyl)-2-oxabicyclo[2.2.2]octan-1-yl)acetic acid], the IC50 stood at 537 nM. In the case of `Cn1ncc(-c2ccc(C34CCC(CC(=O)O)(CC3)OC4)cc2)c1COC(=O)N1CC[C@H](F)C1` [Example 38, 2-(4-(4-(5-((((S)-3-fluoropyrrolidine-1-carbonyl)oxy)methyl)-1-methyl-1H-pyrazol-4-yl)phenyl)-2-oxabicyclo[2.2.2]octan-1-yl)acetic acid] it was 1900 nM; in that of `CC(C)CCN(C)C(=O)OCc1c(-c2ccc(C34CCC(CC(=O)O)(CC3)OC4)cc2)cnn1C` [Example 39, 2-(4-(4-(5-(((isopentyl(methyl)carbamoyl)oxy)methyl)-1-methyl-1H-pyrazol-4-yl)phenyl)-2-oxabicyclo[2.2.2]octan-1-yl)acetic acid], 520 nM. In the case of `CN(Cc1ccccc1)C(=O)OCc1c(-c2ccc(C34CCC(CC(=O)O)(CC3)OC4)cc2)cnn1C` [Example 40, 2-(4-(4-(5-(((benzyl(methyl)carbamoyl)oxy)methyl)-1-methyl-1H-pyrazol-4-yl)phenyl)-2-oxabicyclo[2.2.2]octan-1-yl)acetic acid] it was 767 nM; in that of `CN(CCc1ccc(Cl)cc1)C(=O)OCc1c(-c2ccc(C34CCC(CC(=O)O)(CC3)OC4)cc2)cnn1C` [Example 41, 2-(4-(4-(5-((((4-chlorophenethyl)(methyl)carbamoyl)oxy)methyl)-1-methyl-1H-pyrazol-4-yl)phenyl)-2-oxabicyclo[2.2.2]octan-1-yl)acetic acid], 2790 nM; in that of `CN(C(=O)OCc1c(-c2ccc(C34CCC(CC(=O)O)(CC3)OC4)c(F)c2)cnn1C)C1CCCC1` [Example 42, 2-(4-(4-(5-(((cyclopentyl(methyl)carbamoyl)oxy)methyl)-1-methyl-1H-pyrazol-4-yl)-2-fluorophenyl)-2-oxabicyclo[2.2.2]octan-1-yl)acetic acid], 232 nM. On to `CC(C)CCN(C)C(=O)OCc1c(-c2ccc(C34CCC(CC(=O)O)(CC3)OC4)c(F)c2)cnn1C` [Example 43, 2-(4-(2-fluoro-4-(5-(((isopentyl(methyl)carbamoyl)oxy)methyl)-1-methyl-1H-pyrazol-4-yl)phenyl)-2-oxabicyclo[2.2.2]octan-1-yl)acetic acid], for which the IC50 stood at 271 nM. For `CN(C(=O)OCc1c(-c2ccc(C34CCC(CC(=O)O)(CC3)OC4)cc2F)cnn1C)C1CCCC1` [Example 44, 2-(4-(4-(5-(((cyclopentyl(methyl)carbamoyl)oxy)methyl)-1-methyl-1H-pyrazol-4-yl)-3-fluorophenyl)-2-oxabicyclo[2.2.2]octan-1-yl)acetic acid] the value was 1860 nM; for `CC(C)CCN(C)C(=O)OCc1c(-c2ccc(C34CCC(CC(=O)O)(CC3)OC4)cc2F)cnn1C` [Example 45, 2-(4-(3-fluoro-4-(5-(((isopentyl(methyl)carbamoyl)oxy)methyl)-1-methyl-1H-pyrazol-4-yl)phenyl)-2-oxabicyclo[2.2.2]octan-1-yl)acetic acid], 1120 nM.
